From PubChem BioAssay (NCI)
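Cultured in 96-well plates, cells were exposed to test compound for 48 hours across five concentrations. GI50: concentration for 50% inhibition of growth. Definition used: TGI = concentration required for complete inhibition of growth.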

Experiments:
Assay in all cases: NCI tumour cell line growth inhibition, 48 h
[1] = system: 786-0 renal
[2] = system: A498 renal
[3] = system: A549 NSCLC
[4] = system: ACHN renal
[5] = system: BT-549 breast
[6] = system: CAKI-1 renal
[7] = system: CCRF-CEM leukemia
[8] = system: COLO 205 colon
[9] = system: DU-145 prostate
[10] = system: EKVX NSCLC
[11] = system: HCC-2998 colon
[12] = system: HCT-116 colon
[13] = system: HCT-15 colon
[14] = system: HL-60(TB) leukemia
[15] = system: HOP-62 NSCLC
[16] = system: HOP-92 NSCLC
[17] = system: HS 578T breast
[18] = system: HT29 colon
[19] = system: IGROV1 ovarian
[20] = system: K-562 leukemia
[21] = system: KM12 colon
[22] = system: LOX IMVI melanoma
[23] = system: M14 melanoma
[24] = system: MALME-3M melanoma
[25] = system: MCF7 breast
[26] = system: MDA-MB-231 breast
[27] = system: MDA-MB-435
[28] = system: MOLT-4 leukemia
[29] = system: NCI-H226 lung
[30] = system: NCI-H23 lung
[31] = system: NCI-H460 lung
[32] = system: NCI-H522 lung
[33] = system: NCI/ADR-RES ovarian
[34] = system: OVCAR-3 ovarian
[35] = system: OVCAR-4 ovarian
[36] = system: OVCAR-5 ovarian
[37] = system: OVCAR-8 ovarian
[38] = system: PC-3 prostate
[39] = system: RPMI-8226 leukemia
[40] = system: RXF 393 renal
[41] = system: SF-268 CNS
[42] = system: SF-295 CNS
[43] = system: SF-539 CNS
[44] = system: SK-MEL-2 melanoma
[45] = system: SK-MEL-28 melanoma
[46] = system: SK-MEL-5 melanoma
[47] = system: SK-OV-3 ovarian
[48] = system: SN12C renal
[49] = system: SNB-19 CNS
[50] = system: SNB-75 CNS
[51] = system: SW-620 colon
[52] = system: T-47D breast
[53] = system: TK-10 renal
[54] = system: U251 CNS
[55] = system: UACC-257 melanoma
[56] = system: UACC-62 melanoma
[57] = system: UO-31 renal

**Q.** Which results are given for `Fc1ccc(-c2nnc3sc(-c4cccc(Cl)c4)nn23)cc1Cl`?
**A.** GI50 [1]: > 100 µM; TGI [1]: > 100 µM; GI50 [2]: > 100 µM; TGI [2]: > 100 µM; GI50 [3]: > 100 µM; TGI [3]: > 100 µM; GI50 [4]: > 100 µM; TGI [4]: > 100 µM; GI50 [5]: > 100 µM; TGI [5]: > 100 µM; GI50 [6]: > 100 µM; TGI [6]: > 100 µM; GI50 [7]: > 100 µM; TGI [7]: > 100 µM; GI50 [8]: > 100 µM; TGI [8]: > 100 µM; GI50 [9]: > 100 µM; TGI [9]: > 100 µM; GI50 [10]: > 100 µM; TGI [10]: > 100 µM; GI50 [11]: > 100 µM; TGI [11]: > 100 µM; GI50 [12]: > 100 µM; TGI [12]: > 100 µM; GI50 [13]: > 100 µM; TGI [13]: > 100 µM; GI50 [14]: > 100 µM; TGI [14]: > 100 µM; GI50 [15]: > 100 µM; TGI [15]: > 100 µM; GI50 [16]: 33.7 µM; TGI [16]: 89.6 µM; GI50 [17]: > 100 µM; TGI [17]: > 100 µM; GI50 [18]: > 100 µM; TGI [18]: > 100 µM; GI50 [19]: > 100 µM; TGI [19]: > 100 µM; GI50 [20]: > 100 µM; TGI [20]: > 100 µM; GI50 [21]: > 100 µM; TGI [21]: > 100 µM; GI50 [22]: > 100 µM; TGI [22]: > 100 µM; GI50 [23]: > 100 µM; TGI [23]: > 100 µM; GI50 [24]: > 100 µM; TGI [24]: > 100 µM; GI50 [25]: > 100 µM; TGI [25]: > 100 µM; GI50 [26]: > 100 µM; TGI [26]: > 100 µM; GI50 [27]: > 100 µM; TGI [27]: > 100 µM; GI50 [28]: > 100 µM; TGI [28]: > 100 µM; GI50 [29]: > 100 µM; TGI [29]: > 100 µM; GI50 [30]: > 100 µM; TGI [30]: > 100 µM; GI50 [31]: > 100 µM; TGI [31]: > 100 µM; GI50 [32]: > 100 µM; TGI [32]: > 100 µM; GI50 [33]: > 100 µM; TGI [33]: > 100 µM; GI50 [34]: > 100 µM; TGI [34]: > 100 µM; GI50 [35]: > 100 µM; TGI [35]: > 100 µM; GI50 [36]: > 100 µM; TGI [36]: > 100 µM; GI50 [37]: > 100 µM; TGI [37]: > 100 µM; GI50 [38]: > 100 µM; TGI [38]: > 100 µM; GI50 [39]: > 100 µM; TGI [39]: > 100 µM; GI50 [40]: 39.5 µM; TGI [40]: > 100 µM; GI50 [41]: > 100 µM; TGI [41]: > 100 µM; GI50 [42]: > 100 µM; TGI [42]: > 100 µM; GI50 [43]: > 100 µM; TGI [43]: > 100 µM; GI50 [44]: > 100 µM; TGI [44]: > 100 µM; GI50 [45]: > 100 µM; TGI [45]: > 100 µM; GI50 [46]: > 100 µM; TGI [46]: > 100 µM; GI50 [47]: > 100 µM; TGI [47]: > 100 µM; GI50 [48]: > 100 µM; TGI [48]: > 100 µM; GI50 [49]: > 100 µM; TGI [49]: > 100 µM; GI50 [50]: 44.4 µM; TGI [50]: > 100 µM; GI50 [51]: > 100 µM; TGI [51]: > 100 µM; GI50 [52]: > 100 µM; TGI [52]: > 100 µM; GI50 [53]: > 100 µM; TGI [53]: > 100 µM; GI50 [54]: > 100 µM; TGI [54]: > 100 µM; GI50 [55]: > 100 µM; TGI [55]: > 100 µM; GI50 [56]: > 100 µM; TGI [56]: > 100 µM; GI50 [57]: > 100 µM; TGI [57]: > 100 µM
